29 molecules from US8697739B2, “Bicyclic acetyl-CoA carboxylase inhibitors and uses thereof” (Novartis AG, priority 2010, dated 2014) can be followed below.

Broadly, the IC50 is the concentration that inhibits the measured activity by half.

T1 sequence (O00763 144-2458): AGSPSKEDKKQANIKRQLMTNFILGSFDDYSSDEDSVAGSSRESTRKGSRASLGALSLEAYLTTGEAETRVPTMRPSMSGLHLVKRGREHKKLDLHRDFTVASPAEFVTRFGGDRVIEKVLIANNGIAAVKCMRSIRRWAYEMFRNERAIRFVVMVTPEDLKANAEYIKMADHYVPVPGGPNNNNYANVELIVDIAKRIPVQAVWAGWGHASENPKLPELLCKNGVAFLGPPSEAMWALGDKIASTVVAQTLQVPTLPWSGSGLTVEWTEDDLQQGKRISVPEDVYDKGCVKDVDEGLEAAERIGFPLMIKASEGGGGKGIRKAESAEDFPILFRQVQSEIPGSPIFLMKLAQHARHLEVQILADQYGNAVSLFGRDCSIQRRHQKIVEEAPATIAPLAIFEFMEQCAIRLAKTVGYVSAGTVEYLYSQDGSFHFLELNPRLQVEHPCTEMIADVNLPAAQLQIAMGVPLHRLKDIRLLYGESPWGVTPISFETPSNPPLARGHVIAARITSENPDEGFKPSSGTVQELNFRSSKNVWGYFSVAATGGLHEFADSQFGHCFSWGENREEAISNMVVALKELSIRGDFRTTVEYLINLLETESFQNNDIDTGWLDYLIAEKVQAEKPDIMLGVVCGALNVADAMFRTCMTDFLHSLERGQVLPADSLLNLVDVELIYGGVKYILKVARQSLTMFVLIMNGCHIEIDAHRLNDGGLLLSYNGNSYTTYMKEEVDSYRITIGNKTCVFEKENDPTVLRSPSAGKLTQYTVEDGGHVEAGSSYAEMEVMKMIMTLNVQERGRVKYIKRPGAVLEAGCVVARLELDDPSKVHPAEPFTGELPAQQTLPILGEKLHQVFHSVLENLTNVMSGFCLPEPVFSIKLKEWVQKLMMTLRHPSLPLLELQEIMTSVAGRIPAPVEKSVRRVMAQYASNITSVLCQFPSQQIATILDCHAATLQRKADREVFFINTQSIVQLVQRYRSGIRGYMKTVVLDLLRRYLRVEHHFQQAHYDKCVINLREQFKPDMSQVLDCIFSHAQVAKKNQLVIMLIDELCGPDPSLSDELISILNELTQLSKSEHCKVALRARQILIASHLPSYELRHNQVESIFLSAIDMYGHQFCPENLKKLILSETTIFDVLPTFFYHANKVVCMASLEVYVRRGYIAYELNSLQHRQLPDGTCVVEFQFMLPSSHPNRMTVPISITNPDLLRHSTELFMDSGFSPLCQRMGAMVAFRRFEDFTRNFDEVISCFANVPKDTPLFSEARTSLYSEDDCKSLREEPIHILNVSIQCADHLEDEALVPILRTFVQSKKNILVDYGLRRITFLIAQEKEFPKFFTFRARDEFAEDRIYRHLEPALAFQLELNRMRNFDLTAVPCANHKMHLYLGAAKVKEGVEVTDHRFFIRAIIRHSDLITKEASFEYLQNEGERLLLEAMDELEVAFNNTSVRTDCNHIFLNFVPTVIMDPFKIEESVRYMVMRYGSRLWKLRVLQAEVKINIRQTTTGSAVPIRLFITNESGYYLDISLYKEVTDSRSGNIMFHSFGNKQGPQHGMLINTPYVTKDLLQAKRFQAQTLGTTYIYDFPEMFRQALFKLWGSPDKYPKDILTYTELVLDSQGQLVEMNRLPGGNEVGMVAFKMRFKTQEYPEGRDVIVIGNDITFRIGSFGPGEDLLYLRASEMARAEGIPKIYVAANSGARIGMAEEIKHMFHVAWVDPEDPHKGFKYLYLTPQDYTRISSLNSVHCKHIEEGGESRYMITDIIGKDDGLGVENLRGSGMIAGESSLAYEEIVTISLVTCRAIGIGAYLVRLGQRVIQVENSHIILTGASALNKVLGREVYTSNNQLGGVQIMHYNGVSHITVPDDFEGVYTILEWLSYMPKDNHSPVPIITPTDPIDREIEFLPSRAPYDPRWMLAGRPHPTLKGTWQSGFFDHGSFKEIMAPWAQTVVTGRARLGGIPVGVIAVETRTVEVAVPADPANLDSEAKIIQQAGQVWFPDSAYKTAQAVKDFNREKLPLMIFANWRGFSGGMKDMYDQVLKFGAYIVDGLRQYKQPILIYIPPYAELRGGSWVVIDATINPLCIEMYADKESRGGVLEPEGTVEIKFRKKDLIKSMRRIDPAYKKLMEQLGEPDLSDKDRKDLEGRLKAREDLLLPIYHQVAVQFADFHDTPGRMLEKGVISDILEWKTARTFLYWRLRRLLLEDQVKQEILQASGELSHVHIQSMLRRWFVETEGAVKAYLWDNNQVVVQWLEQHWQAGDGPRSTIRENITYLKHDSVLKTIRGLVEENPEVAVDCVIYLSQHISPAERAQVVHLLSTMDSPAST

The assay addresses T1, human acetyl-CoA carboxylase 2 (ACC2) (Homo sapiens, UniProt O00763).
T1 construct: The cDNA encoding amino acids 144 to 2458 of human acetyl-CoA carboxylase 2; made in house; host or cells: Sf9 insect cells (baculovirus, pFastBac1)
The assay can be described thus: Acetyl-CoA carboxylase enzyme assay (malonyl-CoA formation by LC/MS/MS). Type of assay: biochemical. The note with it: recombinant human ACC2 (aa 144-2458); read-out: IC50 ACC2. An outline of the steps: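 Malonyl-CoA formation was read by LC/MS/MS MRM against a [13C3]-malonyl-CoA internal standard, after acetic acid quench. The enzyme was baculovirus/Sf9-expressed human ACC2 residues 144–2458, given 15 minutes room-temperature compound preincubation in HEPES pH 7.5 buffer with MgCl2, citrate and DTT. Substrate solution held 50 μM acetyl-CoA, 120 μM ATP and 2 mM KHCO3.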
On to `C[C@@H](NC(=O)[C@H]1CC[C@H](NS(=O)(=O)c2ccc3nc(OC4COC4)ccc3c2)CC1)c1ccccn1` [Example 83, (1r,4R)-4-(2-(oxetan-3-yloxy)quinoline-6-sulfonamido)-N-((R)-1-(pyridin-2-yl)ethyl)cyclohexanecarboxamide], for which the IC50 worked out at 855 nM.

For the molecule `CC(C)(C)OC(=O)N1CCN(C(=O)[C@H]2CC[C@H](NS(=O)(=O)c3cnc4ccccc4c3)CC2)[C@@H](c2ccccc2)C1` [Example 84, (S)-tert-butyl 3-phenyl-4-((1r,4S)-4-(quinoline-3-sulfonamido)cyclohexanecarbonyl)piperazine-1-carboxylate], the half-inhibitory concentration (IC50) is 45 nM.

As for `O=C([C@H]1CC[C@H](NS(=O)(=O)c2cnc3ccccc3c2)CC1)N1CCNC[C@@H]1c1ccccc1` [Example 85, N-((1S,4r)-4-((S)-2-phenylpiperazine-1-carbonyl)cyclohexyl)quinoline-3-sulfonamide], the IC50 worked out at 143 nM.

As to `Cn1c(-c2ccccc2)cc2cc(S(=O)(=O)N[C@H]3CC[C@H](C(=O)N4CCN[C@H](C(F)(F)F)C4)CC3)ccc21` [Example 86, 1-methyl-2-phenyl-N-((1S,4r)-4-((S)-3-(trifluoromethyl)piperazine-1-carbonyl)cyclohexyl)-1H-indole-5-sulfonamide], the IC50 was 75 nM.

As for `Cn1c(-c2ccccc2)cc2cc(S(=O)(=O)N[C@H]3CC[C@H](C(=O)N4CCN[C@@H](C(F)(F)F)C4)CC3)ccc21` [Example 87, 1-methyl-2-phenyl-N-((1R,4r)-4-((R)-3-(trifluoromethyl)piperazine-1-carbonyl)cyclohexyl)-1H-indole-5-sulfonamide], the half-inhibitory concentration (IC50) amounted to 100 nM.

Turning to `C[C@@H](NC(=O)[C@H]1CC[C@H](NS(=O)(=O)c2ccc3c(c2)c(C#N)cn3C)CC1)c1ccc(F)cc1` [Example 88, (1r,4R)-4-(3-cyano-1-methyl-1H-indole-5-sulfonamido)-N-((R)-1-(4-fluorophenyl)ethyl)cyclohexanecarboxamide], the IC50 was 50 nM.

Take `Cn1cc(C#N)c2cc(S(=O)(=O)N[C@H]3CC[C@H](C(=O)N[C@@H](c4ccccc4)C(C)(C)O)CC3)ccc21` [Example 89, (1r,4S)-4-(3-cyano-1-methyl-1H-indole-5-sulfonamido)-N-((S)-2-hydroxy-2-methyl-1-phenylpropyl)cyclohexanecarboxamide]: the IC50 was 20 nM.

Consider `Cn1c(-c2ccccc2)cc2cc(S(=O)(=O)N[C@H]3CC[C@H](C(=O)N4CC(C(=O)O)CCC4c4ccccc4)CC3)ccc21` (some centres unmarked) [Example 90, 1-((1r,4r)-4-(1-methyl-2-phenyl-1H-indole-5-sulfonamido)cyclohexanecarbonyl)-6-phenylpiperidine-3-carboxylic acid], for which the IC50 was 260 nM.

Consider `Cn1c(-c2ccccc2)cc2cc(S(=O)(=O)N[C@H]3CC[C@H](C(=O)N4CC(C(=O)O)CCC4c4ccccc4)CC3)ccc21` (some centres unmarked) [Example 91, 1-((1r,4r)-4-(1-methyl-2-phenyl-1H-indole-5-sulfonamido)cyclohexanecarbonyl)-6-phenylpiperidine-3-carboxylic acid], for which the IC50 was found to be 30 nM.

For `Cn1c(-c2ccccc2)cc2cc(S(=O)(=O)N[C@H]3CC[C@H](C(=O)N4CC(C(=O)O)CCC4c4ccccc4)CC3)ccc21` (some centres unmarked) [Example 92, 1-((1r,4r)-4-(1-methyl-2-phenyl-1H-indole-5-sulfonamido)cyclohexanecarbonyl)-6-phenylpiperidine-3-carboxylic acid], the IC50 was below 10 nM.

Regarding `Cn1c(-c2ccccc2)cc2cc(S(=O)(=O)N[C@H]3CC[C@H](C(=O)N4CC(C(=O)O)CCC4c4ccccc4)CC3)ccc21` (some centres unmarked) [Example 93, 1-((1r,4r)-4-(1-methyl-2-phenyl-1H-indole-5-sulfonamido)cyclohexanecarbonyl)-6-phenylpiperidine-3-carboxylic acid], the IC50 stood at 545 nM.

On to `Cn1c(-c2ccccc2)cc2cc(S(=O)(=O)N[C@H]3CC[C@H](C(=O)N[C@H](CC(=O)OC(C)(C)C)c4ccccc4)CC3)ccc21` [Example 94, (R)-tert-butyl 3-((1r,4R)-4-(1-methyl-2-phenyl-1H-indole-5-sulfonamido)cyclohexanecarboxamido)-3-phenylpropanoate], for which the IC50 was 75 nM.

Take `Cn1c(-c2ccccc2)cc2cc(S(=O)(=O)N[C@H]3CC[C@H](C(=O)N[C@H](CC(=O)O)c4ccccc4)CC3)ccc21` [Example 95, (R)-3-((1r,4R)-4-(1-methyl-2-phenyl-1H-indole-5-sulfonamido)cyclohexanecarboxamido)-3-phenylpropanoic acid]: the IC50 is 30 nM.

As to `CC(C)(O)[C@@H](NC(=O)[C@H]1CC[C@H](NS(=O)(=O)c2ccc3ccccc3c2)CC1)c1ccccc1` [Example 96, (1r,4S)-N-((S)-2-hydroxy-2-methyl-1-phenylpropyl)-4-(naphthalene-2-sulfonamido)cyclohexanecarboxamide], the concentration for half-maximal inhibition (IC50) was determined as 10 nM.

Take `Cn1c(-c2ccccc2)cc2cc(S(=O)(=O)N[C@H]3CC[C@H](C(=O)N[C@@H](c4ccccc4)C(C)(C)C(=O)O)CC3)ccc21` [Example 97, (S)-2,2-dimethyl-3-((1r,4S)-4-(1-methyl-2-phenyl-1H-indole-5-sulfonamido)cyclohexanecarboxamido)-3-phenylpropanoic acid]: the IC50 was below 10 nM.

As to `COC(=O)[C@H]1CC[C@H](NS(=O)(=O)c2ccc3nc(-c4ccccc4)[nH]c3c2)CC1` [Example 98, (1r,4r)-methyl 4-(2-phenyl-1H-benzo[d]imidazole-6-sulfonamido)cyclohexanecarboxylate], the IC50 was 4300 nM.

Take `O=C(OCc1ccccc1)[C@H]1CC[C@H](NS(=O)(=O)c2ccc3nc(-c4ccccc4)[nH]c3c2)CC1` [Example 99, (1r,4r)-benzyl 4-(2-phenyl-1H-benzo[d]imidazole-6-sulfonamido)cyclohexanecarboxylate]: the IC50 stood at 494 nM.

Regarding `COc1ccc(-c2nc3ccc(S(=O)(=O)N[C@H]4CC[C@H](C(=O)OCc5ccccc5)CC4)cc3[nH]2)cc1` [Example 100, (1r,4r)-benzyl 4-(2-(4-methoxyphenyl)-1H-benzo[d]imidazole-6-sulfonamido)cyclohexanecarboxylate], the IC50 was found to be 760 nM.

Consider `COC(=O)c1ccc(COC(=O)[C@H]2CC[C@H](NS(=O)(=O)c3ccc4nc(-c5ccccc5)[nH]c4c3)CC2)cc1` [Example 101, methyl 4-(((1r,4r)-4-(2-phenyl-1H-benzo[d]imidazole-6-sulfonamido)cyclohexanecarbonyloxy)methyl)benzoate], for which the IC50 stood at 1790 nM.

Regarding `C[C@@H](NC(=O)[C@H]1CC[C@H](NS(=O)(=O)c2ccc3[nH]c(-c4ccccc4)cc3c2)CC1)c1ccc(F)cc1` [Example 102, (1r,4R)-N-((R)-1-(4-fluorophenyl)ethyl)-4-(2-phenyl-1H-indole-5-sulfonamido)cyclohexanecarboxamide], the concentration for half-maximal inhibition (IC50) came out at 45 nM.

Regarding `CC(C)(C)OC(=O)N1CCN(c2ccc(-c3nc4cc(S(=O)(=O)N[C@H]5CC[C@H](C(=O)N6CCOCC6)CC5)ccc4[nH]3)cc2)CC1` [Example 103, tert-butyl 4-(4-(5-(N-((1r,4r)-4-(morpholine-4-carbonyl)cyclohexyl)sulfamoyl)-1H-benzo[d]imidazol-2-yl)phenyl)piperazine-1-carboxylate], the IC50 amounted to 38 nM.

With `O=C([C@H]1CC[C@H](NS(=O)(=O)c2ccc3[nH]c(-c4ccc(N5CCNCC5)cc4)nc3c2)CC1)N1CCOCC1` [Example 104, N-((1r,4r)-4-(morpholine-4-carbonyl)cyclohexyl)-2-(4-(piperazin-1-yl)phenyl)-1H-benzo[d]imidazole-5-sulfonamide], the 50% inhibitory concentration (IC50) was 20 nM.

On to `C[C@@H](NC(=O)[C@H]1CC[C@H](NS(=O)(=O)c2cnc3ccccc3c2)CC1)c1ccc(F)cc1` [Example 105, (1r,4R)-N-((R)-1-(4-fluorophenyl)ethyl)-4-(quinoline-3-sulfonamido)cyclohexanecarboxamide], for which the IC50 was found to be 252 nM.

As for `CC(=O)N1CCc2cc(S(=O)(=O)N[C@H]3CC[C@H](C(=O)N[C@H](C)c4ccc(F)cc4)CC3)ccc21` [Example 106, (1r,4R)-4-(1-acetylindoline-5-sulfonamido)-N-((R)-1-(4-fluorophenyl)ethyl)cyclohexanecarboxamide], the half-maximal inhibitory concentration (IC50) was found to be 388 nM.

Regarding `C[C@@H](NC(=O)[C@H]1CC[C@H](NS(=O)(=O)c2ccc3[nH]cnc3c2)CC1)c1ccc(F)cc1` [Example 107, (1r,4R)-4-(1H-benzo[d]imidazole-5-sulfonamido)-N-((R)-1-(4-fluorophenyl)ethyl)cyclohexanecarboxamide], the IC50 turned out to be 205 nM.

Regarding `C[C@@H](NC(=O)[C@H]1CC[C@H](NS(=O)(=O)c2ccc3[nH]c([C@@H]4CNCCN4)nc3c2)CC1)c1ccc(F)cc1` [Example 108, (1r,4R)-N-((R)-1-(4-fluorophenyl)ethyl)-4-(2-((S)-piperazin-2-yl)-1H-benzo[d]imidazole-5-sulfonamido)cyclohexanecarboxamide], the IC50 is 1260 nM.

With `C[C@@H](NC(=O)[C@H]1CC[C@H](NS(=O)(=O)c2ccc3c(c2)ncn3C)CC1)c1ccc(F)cc1` [Example 109, (1r,4R)-N-((R)-1-(4-fluorophenyl)ethyl)-4-(1-methyl-1H-benzo[d]imidazole-5-sulfonamido)cyclohexanecarboxamide], the IC50 turned out to be 321 nM.

As to `C[C@@H](NC(=O)[C@H]1CC[C@H](NS(=O)(=O)c2ccc3c(c2)CCC(=O)N3)CC1)c1ccc(F)cc1` [Example 110, (1r,4R)-N-((R)-1-(4-fluorophenyl)ethyl)-4-(2-oxo-1,2,3,4-tetrahydroquinoline-6-sulfonamido)cyclohexanecarboxamide], the IC50 was determined as 290 nM.

Regarding `C[C@@H](NC(=O)[C@H]1CC[C@H](NS(=O)(=O)c2ccc3ncccc3c2)CC1)c1ccc(F)cc1` [Example 111, (1r,4R)-N-((R)-1-(4-fluorophenyl)ethyl)-4-(quinoline-6-sulfonamido)cyclohexanecarboxamide], the IC50 was 139 nM.
